Measured values from patent US20250388632A1, “ANNEXIN A1-DERIVED POLYPEPTIDE ANALOGUES” (RESOTHER PHARMA A/S, priority 2022, published 2025).
Several values for one entry are separate records, joined by “and”; a condition that tells them apart may be missing. Identical values can stand only once.

Assays:
[1] = system: polymorphonuclear leukocytes (PMNs); experiment: PMN (neutrophil) chemotaxis, Transwell migration, CellTiter Glo readout; assay type: cell-based, human; conditions: 10 uM compound in receiver wells; 1 h migration, 37 °C; PMNs from buffy coats of healthy volunteers
Experimental: AnxA1 N-terminal fragments were assessed in polymorphonuclear leukocytes (PMNs) isolated from buffy coats of healthy volunteers. PMNs were resuspended in migration medium (RPMI1640 (ATCC, Cat. No. 30-2001)+0.05% BSA-FAF) to a concentration of 5.5×10^6 cells/mL.
Receiver wells of a Transwell plate were filled with 200 μL of migration medium with 10 uM of compound 1, 2 or 3. Donor plate was inserted and 75 μL of cell suspension was added to upper wells ([…]). Plates were incubated for 1 h (37° C., 5% CO2, 95% humidity). The number of migrated cells was assessed by removing Transwell insert with cells from the plate in order to stop migration, followed by addition of 200 μL CellTiter Glo reagent to lower wells. Plates were incubated for 10 minutes in the dark (at room temperature), and 200 μL was transferred to white 96 well plates (Lumitrac 200). Luminescence was measured by use of EnVision 2104 (Perkin Elmer) (exposition time 0.1 s)
The chemotaxis response was estimated by calculating fold change compared to negative control (vehicle).

[2] = system: monocytes; experiment: Whole blood monocyte phagocytosis assay (pHrodo E. coli BioParticles, flow cytometry); assay type: cell-based; conditions: human whole blood, 1 h incubation, then pHrodo E. coli BioParticles 30 min, mean of four experiments
Experimental: AnxA1 N-terminal fragments were assessed in whole blood phagocytosis assay. Whole blood from human subjects (45 μL) was incubated for 1 h with control peptide Anxa1 2-50 (100 nM) and test peptides Compound 1 (100 nM), Compound 2 (100 nM) and Compound 3 (30 nM), or vehicle in a 96-well plate. 50 μl pHrodo E. coli BioParticles Conjugate (5 μg/well) was added to the wells, and the plate was incubated at 37° C., 5% CO2 for 30 min. 150 μl of 4% PFA was added, and the plate incubated at 4° C. for 30 min. 30 μL from each well of the 96-well plate was transferred into flow cytometry tubes with 500 μL RPMI 1640 and 1 μL of Vybrant DyeCycle dye. Tubes were incubated for 30 min at 37° C. and 5% CO2, followed by addition of 2.5 mL of RPMI 1640 Medium in each tube.
Samples were acquired on the Attune NxT Flow Cytometer. Monocyte phagocytosis was determined as an increase in pHrodo Green fluorescence relative to control sample.

AMVSEFLKQAWFIENEEQEYVQTLKSSKGGPGSAVSPY (Val24Leu variant of AnxA1 fragment; MISC_FEATURE - Val24Leu variant of AnxA1 fragment) [Compound 3]
Fold increase relative to vehicle (PMN chemotaxis) [1]: 1.6 fold | Fold increase relative to vehicle (monocyte phagocytosis) ([2]; peptide 30 nM): 2.9 fold

AMVSEFLKQAWFIENEEQEYVQTLKSSK (Val24Leu variant of AnxA1 fragment; MISC_FEATURE - Val24Leu variant of AnxA1 fragment) [Compound 1]
Fold increase relative to vehicle (PMN chemotaxis) [1]: 3 fold and 3.1 fold | Fold increase relative to vehicle (monocyte phagocytosis) ([2]; peptide 100 nM): 2.6 fold

AMVSEFLKQAWFIENEEQEYVQTVKSSKGGPGSAVSPYPTFNPSSDVAA (Synthetic sequence having some homology with human annexin 1) [Anxa1 2-50, reference compound]
Fold increase relative to vehicle (monocyte phagocytosis) ([2]; peptide 100 nM): 1.9 fold | Fold increase relative to vehicle (monocyte phagocytosis) ([2]; peptide 100 nM, listed as AnxA1 2-50): ~2 fold

AMVSEFLKQAWFIENEEQEYVQTLKSSKGGPGS (Val24Leu variant of AnxA1 fragment; MISC_FEATURE - Val24Leu variant of AnxA1 fragment) [Compound 2]
Fold increase relative to vehicle (PMN chemotaxis) [1]: 2 fold and 2.0 fold | Fold increase relative to vehicle (monocyte phagocytosis) ([2]; peptide 100 nM): 2.8 fold
